Measurements: the supplement of paper PMC10307832

Experiments:
Assay in all cases: relative viability (nuclei count vs DMSO), 5 days (fraction); higher = more cells survive
Bexarotene = compound: C=C(c1ccc(C(=O)O)cc1)c1cc2c(cc1C)C(C)(C)CCC2(C)C [Bexarotene]
Summary of the method: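 For viability, nuclei in each treated well were divided by nuclei in vehicle wells and the median across plates was taken. Lung cancer cell lines in 1536-well plates were pinned with five library-drug doses (not always all listed) spaced by √10, cultured 5 days without medium change, and imaged at 4× after Hoechst staining, with plates passing only at control CV below 25% and at least one doubling.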

Bexarotene + Luminespib = compound: C=C(c1ccc(C(=O)O)cc1)c1cc2c(cc1C)C(C)(C)CCC2(C)C [Bexarotene] + CCNC(=O)c1noc(-c2cc(C(C)C)c(O)cc2O)c1-c1ccc(CN2CCOCC2)cc1 [Luminespib] (partner 0.01 µM)
Summary of the method: (§1)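 Lung cancer cell lines were seeded in 1536-well plates and dosed by pin tool the next day, with either a single drug or a fixed anchor-drug dose combined with five library-drug doses (not always all listed) spaced in √10 steps. Five days later, one step fixed the cells and stained their nuclei (final 0.05% Triton X-100, 1% formaldehyde, 1 ug/ml Hoechst), and nuclei were counted on 4× images. Relative viability is the nuclei count in treated wells divided by the count in vehicle wells, and each value is the median of duplicate plates.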

Bexarotene + Foretinib = compound: C=C(c1ccc(C(=O)O)cc1)c1cc2c(cc1C)C(C)(C)CCC2(C)C [Bexarotene] + COc1cc2c(Oc3ccc(NC(=O)C4(C(=O)Nc5ccc(F)cc5)CC4)cc3F)ccnc2cc1OCCCN1CCOCC1 [Foretinib] (partner 0.25 µM)
Summary of the method: as §1

Bexarotene + OSI-027 = compound: C=C(c1ccc(C(=O)O)cc1)c1cc2c(cc1C)C(C)(C)CCC2(C)C [Bexarotene] + COc1cccc2cc(-c3nc([C@H]4CC[C@H](C(=O)O)CC4)n4ncnc(N)c34)[nH]c12 [OSI-027] (partner 0.5 µM)
Summary of the method: as §1

Bexarotene + Tozasertib = compound: C=C(c1ccc(C(=O)O)cc1)c1cc2c(cc1C)C(C)(C)CCC2(C)C [Bexarotene] + Cc1cc(Nc2cc(N3CCN(C)CC3)nc(Sc3ccc(NC(=O)C4CC4)cc3)n2)n[nH]1 [Tozasertib] (partner 0.1 µM)
Summary of the method: as §1

Bexarotene + Dasatinib = compound: C=C(c1ccc(C(=O)O)cc1)c1cc2c(cc1C)C(C)(C)CCC2(C)C [Bexarotene] + Cc1nc(Nc2ncc(C(=O)Nc3c(C)cccc3Cl)s2)cc(N2CCN(CCO)CC2)n1 [Dasatinib] (partner 0.075 µM)
Summary of the method: as §1

Bexarotene + Phenformin = compound: C=C(c1ccc(C(=O)O)cc1)c1cc2c(cc1C)C(C)(C)CCC2(C)C [Bexarotene] + N=C(N)NC(=N)NCCc1ccccc1 [Phenformin] (partner 250 µM)
Summary of the method: as §1

Bexarotene + Trametinib = compound: C=C(c1ccc(C(=O)O)cc1)c1cc2c(cc1C)C(C)(C)CCC2(C)C [Bexarotene] + CC(=O)Nc1cccc(-n2c(=O)n(C3CC3)c(=O)c3c(Nc4ccc(I)cc4F)n(C)c(=O)c(C)c32)c1 [Trametinib] (partner 0.02 µM)
Summary of the method: as §1

Bexarotene + Palbociclib = compound: C=C(c1ccc(C(=O)O)cc1)c1cc2c(cc1C)C(C)(C)CCC2(C)C [Bexarotene] + CC(=O)c1c(C)c2cnc(Nc3ccc(N4CCNCC4)cn3)nc2n(C2CCCC2)c1=O [Palbociclib] (partner 0.5 µM)
Summary of the method: as §1

Bexarotene + AZD7762 = compound: C=C(c1ccc(C(=O)O)cc1)c1cc2c(cc1C)C(C)(C)CCC2(C)C [Bexarotene] + NC(=O)Nc1cc(-c2cccc(F)c2)sc1C(=O)N[C@H]1CCCNC1 [AZD7762] (partner 0.2 µM)
Summary of the method: as §1

Bexarotene + Pemetrexed = compound: C=C(c1ccc(C(=O)O)cc1)c1cc2c(cc1C)C(C)(C)CCC2(C)C [Bexarotene] + Nc1nc2[nH]cc(CCc3ccc(C(=O)N[C@@H](CCC(=O)O)C(=O)O)cc3)c2c(=O)[nH]1 [Pemetrexed] (partner 0.2 µM)
Summary of the method: as §1

Bexarotene + Decitabine = compound: C=C(c1ccc(C(=O)O)cc1)c1cc2c(cc1C)C(C)(C)CCC2(C)C [Bexarotene] + Nc1ncn([C@H]2C[C@H](O)[C@@H](CO)O2)c(=O)n1 [Decitabine] (partner 2 µM)
Summary of the method: as §1

Bexarotene + Vorinostat = compound: C=C(c1ccc(C(=O)O)cc1)c1cc2c(cc1C)C(C)(C)CCC2(C)C [Bexarotene] + O=C(CCCCCCC(=O)Nc1ccccc1)NO [Vorinostat] (partner 1 µM)
Summary of the method: as §1

Bexarotene + Olaparib = compound: C=C(c1ccc(C(=O)O)cc1)c1cc2c(cc1C)C(C)(C)CCC2(C)C [Bexarotene] + O=C(c1cc(Cc2n[nH]c(=O)c3ccccc23)ccc1F)N1CCN(C(=O)C2CC2)CC1 [Olaparib] (partner 8 µM)
Summary of the method: as §1

NCI-H1623
relative viability (Bexarotene; 0.08 µM): 0.751
relative viability (Bexarotene; 0.253 µM): 0.849
relative viability (Bexarotene; 0.8 µM): 0.815
relative viability (Bexarotene; 2.53 µM): 0.854
relative viability (Bexarotene; 8 µM): 0.806
relative viability (Bexarotene + Luminespib; first compound 0.08 µM): 0.459
relative viability (Bexarotene + Luminespib; first compound 0.253 µM): 0.476
relative viability (Bexarotene + Luminespib; first compound 0.8 µM): 0.481
relative viability (Bexarotene + Luminespib; first compound 2.53 µM): 0.441
relative viability (Bexarotene + Luminespib; first compound 8 µM): 0.543
relative viability (Bexarotene + Foretinib; first compound 0.08 µM): 0.836
relative viability (Bexarotene + Foretinib; first compound 0.253 µM): 0.813
relative viability (Bexarotene + Foretinib; first compound 0.8 µM): 0.805
relative viability (Bexarotene + Foretinib; first compound 2.53 µM): 0.848
relative viability (Bexarotene + Foretinib; first compound 8 µM): 0.773
relative viability (Bexarotene + OSI-027; first compound 0.08 µM): 0.439
relative viability (Bexarotene + OSI-027; first compound 0.253 µM): 0.441
relative viability (Bexarotene + OSI-027; first compound 0.8 µM): 0.363
relative viability (Bexarotene + OSI-027; first compound 2.53 µM): 0.407
relative viability (Bexarotene + OSI-027; first compound 8 µM): 0.334
relative viability (Bexarotene + Tozasertib; first compound 0.08 µM): 0.452
relative viability (Bexarotene + Tozasertib; first compound 0.253 µM): 0.431
relative viability (Bexarotene + Tozasertib; first compound 0.8 µM): 0.333
relative viability (Bexarotene + Tozasertib; first compound 2.53 µM): 0.424
relative viability (Bexarotene + Tozasertib; first compound 8 µM): 0.416
relative viability (Bexarotene + Dasatinib; first compound 0.08 µM): 0.587
relative viability (Bexarotene + Dasatinib; first compound 0.253 µM): 0.501
relative viability (Bexarotene + Dasatinib; first compound 0.8 µM): 0.568
relative viability (Bexarotene + Dasatinib; first compound 2.53 µM): 0.579
relative viability (Bexarotene + Dasatinib; first compound 8 µM): 0.531
relative viability (Bexarotene + Phenformin; first compound 0.08 µM): 0.661
relative viability (Bexarotene + Phenformin; first compound 0.253 µM): 0.598
relative viability (Bexarotene + Phenformin; first compound 0.8 µM): 0.528
relative viability (Bexarotene + Phenformin; first compound 2.53 µM): 0.612
relative viability (Bexarotene + Phenformin; first compound 8 µM): 0.504

NCI-H2342
relative viability (Bexarotene; 0.08 µM): 1.01
relative viability (Bexarotene; 0.253 µM): 0.797
relative viability (Bexarotene; 0.8 µM): 0.965
relative viability (Bexarotene; 2.53 µM): 1.04
relative viability (Bexarotene; 8 µM): 1.06
relative viability (Bexarotene + Trametinib; first compound 0.08 µM): 0.927
relative viability (Bexarotene + Trametinib; first compound 0.253 µM): 0.767
relative viability (Bexarotene + Trametinib; first compound 0.8 µM): 0.794
relative viability (Bexarotene + Trametinib; first compound 2.53 µM): 0.825
relative viability (Bexarotene + Trametinib; first compound 8 µM): 0.745
relative viability (Bexarotene + Palbociclib; first compound 0.08 µM): 0.522
relative viability (Bexarotene + Palbociclib; first compound 0.253 µM): 0.556
relative viability (Bexarotene + Palbociclib; first compound 0.8 µM): 0.525
relative viability (Bexarotene + Palbociclib; first compound 2.53 µM): 0.54
relative viability (Bexarotene + Palbociclib; first compound 8 µM): 0.608
relative viability (Bexarotene + Luminespib; first compound 0.08 µM): 0.709
relative viability (Bexarotene + Luminespib; first compound 0.253 µM): 0.675
relative viability (Bexarotene + Luminespib; first compound 0.8 µM): 0.747
relative viability (Bexarotene + Luminespib; first compound 2.53 µM): 0.873
relative viability (Bexarotene + Luminespib; first compound 8 µM): 0.661
relative viability (Bexarotene + Foretinib; first compound 0.08 µM): 1.01
relative viability (Bexarotene + Foretinib; first compound 0.253 µM): 1.02
relative viability (Bexarotene + Foretinib; first compound 0.8 µM): 1.09
relative viability (Bexarotene + Foretinib; first compound 2.53 µM): 1.12
relative viability (Bexarotene + Foretinib; first compound 8 µM): 1.05
relative viability (Bexarotene + OSI-027; first compound 0.08 µM): 0.612
relative viability (Bexarotene + OSI-027; first compound 0.253 µM): 0.6
relative viability (Bexarotene + OSI-027; first compound 0.8 µM): 0.553
relative viability (Bexarotene + OSI-027; first compound 2.53 µM): 0.686
relative viability (Bexarotene + OSI-027; first compound 8 µM): 0.707
relative viability (Bexarotene + Tozasertib; first compound 0.08 µM): 0.552
relative viability (Bexarotene + Tozasertib; first compound 0.253 µM): 0.57
relative viability (Bexarotene + Tozasertib; first compound 0.8 µM): 0.429
relative viability (Bexarotene + Tozasertib; first compound 2.53 µM): 0.473
relative viability (Bexarotene + Tozasertib; first compound 8 µM): 0.512
relative viability (Bexarotene + Dasatinib; first compound 0.08 µM): 0.331
relative viability (Bexarotene + Dasatinib; first compound 0.253 µM): 0.301
relative viability (Bexarotene + Dasatinib; first compound 0.8 µM): 0.256
relative viability (Bexarotene + Dasatinib; first compound 2.53 µM): 0.33
relative viability (Bexarotene + Dasatinib; first compound 8 µM): 0.419
relative viability (Bexarotene + Phenformin; first compound 0.08 µM): 0.62
relative viability (Bexarotene + Phenformin; first compound 0.253 µM): 0.544
relative viability (Bexarotene + Phenformin; first compound 0.8 µM): 0.605
relative viability (Bexarotene + Phenformin; first compound 2.53 µM): 0.647
relative viability (Bexarotene + Phenformin; first compound 8 µM): 0.72
relative viability (Bexarotene + AZD7762; first compound 0.08 µM): 0.545
relative viability (Bexarotene + AZD7762; first compound 0.253 µM): 0.5
relative viability (Bexarotene + AZD7762; first compound 0.8 µM): 0.494
relative viability (Bexarotene + AZD7762; first compound 2.53 µM): 0.488
relative viability (Bexarotene + AZD7762; first compound 8 µM): 0.718
relative viability (Bexarotene + Pemetrexed; first compound 0.08 µM): 0.827
relative viability (Bexarotene + Pemetrexed; first compound 0.253 µM): 0.739
relative viability (Bexarotene + Pemetrexed; first compound 0.8 µM): 0.747
relative viability (Bexarotene + Pemetrexed; first compound 2.53 µM): 0.825
relative viability (Bexarotene + Pemetrexed; first compound 8 µM): 0.797
relative viability (Bexarotene + Decitabine; first compound 0.08 µM): 0.815
relative viability (Bexarotene + Decitabine; first compound 0.253 µM): 0.736
relative viability (Bexarotene + Decitabine; first compound 0.8 µM): 0.76
relative viability (Bexarotene + Decitabine; first compound 2.53 µM): 0.807
relative viability (Bexarotene + Decitabine; first compound 8 µM): 0.728
relative viability (Bexarotene + Vorinostat; first compound 0.08 µM): 0.758
relative viability (Bexarotene + Vorinostat; first compound 0.253 µM): 0.647
relative viability (Bexarotene + Vorinostat; first compound 0.8 µM): 0.666
relative viability (Bexarotene + Vorinostat; first compound 2.53 µM): 0.571
relative viability (Bexarotene + Vorinostat; first compound 8 µM): 0.731
relative viability (Bexarotene + Olaparib; first compound 0.08 µM): 0.425
relative viability (Bexarotene + Olaparib; first compound 0.253 µM): 0.52
relative viability (Bexarotene + Olaparib; first compound 0.8 µM): 0.481
relative viability (Bexarotene + Olaparib; first compound 2.53 µM): 0.407
relative viability (Bexarotene + Olaparib; first compound 8 µM): 0.583
